{"source": "paper PMC7238232", "about": "“Acamprosate Is a Substrate of the Human Organic Anion Transporter (OAT) 1 without OAT3 Inhibitory Properties: Implications for Renal Acamprosate Secretion and Drug–Drug Interactions” (Pharmaceutics, 2020)", "key": {"HEK293-Flp-In OAT1 cells": {"system": "HEK293-Flp-In OAT1 cells", "assay": "CellTiter-Glo cell viability assay, OAT1 transfected cells", "settings": "up to 3300 µM acamprosate; 3 h"}, "OAT1": {"target": "T1, OAT1 (Homo sapiens, UniProt Q4U2R8)", "T1 sequence (Q4U2R8 1-563)": "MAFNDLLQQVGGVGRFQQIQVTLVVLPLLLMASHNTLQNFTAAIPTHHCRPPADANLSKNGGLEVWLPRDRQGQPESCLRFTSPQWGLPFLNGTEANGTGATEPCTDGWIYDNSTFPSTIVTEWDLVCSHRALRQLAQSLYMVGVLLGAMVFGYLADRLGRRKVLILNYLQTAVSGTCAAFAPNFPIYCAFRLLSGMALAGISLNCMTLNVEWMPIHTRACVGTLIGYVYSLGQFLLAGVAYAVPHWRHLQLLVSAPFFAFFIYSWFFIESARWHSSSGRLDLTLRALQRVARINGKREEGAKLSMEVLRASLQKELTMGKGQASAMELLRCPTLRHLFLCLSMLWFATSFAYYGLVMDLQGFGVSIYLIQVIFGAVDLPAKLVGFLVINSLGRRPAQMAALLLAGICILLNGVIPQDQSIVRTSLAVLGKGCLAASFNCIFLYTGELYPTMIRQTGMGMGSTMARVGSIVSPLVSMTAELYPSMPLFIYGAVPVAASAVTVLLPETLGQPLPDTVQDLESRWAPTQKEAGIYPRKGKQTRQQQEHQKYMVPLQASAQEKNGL", "assay": "Acamprosate intracellular uptake and inhibition of uptake in HEK293-Flp-In OAT1 cells (LC/MS-MS)", "assay_type": "cell-based", "design": "expressed in transfected cells; host or cells: HEK293-Flp-In", "excerpt": "The obtained intracellular amounts (pmol) were normalized to the assay time (min) and cell surface area (cm^2) or protein amount (mg protein) to obtain a term hereafter referred to as uptake rate. The uptake rate of acamprosate as a function of concentration was fitted to a Michaelis–Menten type equation which includes a saturable and a non-saturable uptake component, (1) V=Vmax · [S]/Km +[S]+P · [S] where V is the substrate uptake rate; Vmax is the maximal uptake rate; P is a constant related to non-saturable apparent uptake, i.e., factors such as passive diffusion, unspecific binding and residual compound present after washing steps, and [S] is the substrate concentration (µM). […] Assuming competitive interaction, equilibrium dissociation constants, Ki, were calculated from the IC50 value for each substrate/inhibitor pair, at substrate Km, using the Cheng–Prusoff equation [24]."}, "EAAT1": {"system": "EAAT1", "settings": "Caco-2 cells, preliminary data; cited from earlier work"}, "HEK293-Flp-In mock cells": {"system": "HEK293-Flp-In mock cells", "assay": "Control uptake studies in HEK293-Flp-In mock cells"}, "[1]": {"settings": "cited from earlier work"}, "OATP2B1": {"system": "OATP2B1", "settings": "Caco-2 cells, preliminary data; cited from earlier work"}, "B^0,+AT/rBAT": {"system": "B^0,+AT/rBAT", "settings": "Caco-2 cells, preliminary data; cited from earlier work"}, "TAUT": {"system": "TAUT", "settings": "Caco-2 cells, preliminary data; cited from earlier work"}, "[2]": {"assay": "Physicochemical properties", "settings": "assay pH 7.4"}, "[3]": {"settings": "200 µM acamprosate, 10 min, Lab. 1"}}, "note": "Read-outs that look alike come from different tables or passages of the source.", "data": [{"smiles": "CC(=O)NCCCS(=O)(=O)O", "note": "[acamprosate, acetylhomotaurinate]", "values": [{"measurement": "decrease in cell viability", "setting": "HEK293-Flp-In OAT1 cells", "result": "≤ 10", "unit": "%"}, {"measurement": "acamprosate uptake in OAT1 expressing cells compared to mock and OAT3 expressing cells", "setting": "OAT1; [3]", "result": "statistically significantly higher"}, {"measurement": "acamprosate uptake rate in OAT1 cells relative to mock-transfected cells", "setting": "OAT1; [3]", "result": "approximately 20 fold"}, {"measurement": "P, non-saturable apparent uptake constant", "setting": "OAT1; HEK293-Flp-In OAT1 cells, Lab. 1", "result": "0.35 ± 0.04", "unit": "µL∙mg protein^−1∙min^−1"}, {"measurement": "uptake by OAT1 as compared to OAT3", "setting": "OAT1; criterion of relatively OAT1-specific substrate", "result": "at least 5 ×"}, {"measurement": "inhibition of substrate transport via EAAT1", "setting": "EAAT1", "result": "did not inhibit"}, {"measurement": "effect on uptake of [3H]-E3S in mock cells", "setting": "HEK293-Flp-In mock cells; 0.02 µM [3H]-E3S, 200 µM E3S, 300 µM or 0.2–1022 µM probenecid, 10,000 µM acamprosate, Lab. 2", "result": "did not affect"}, {"measurement": "effect on uptake of [14C]-PAH in mock cells", "setting": "HEK293-Flp-In mock cells; 9.5 µM [14C]-PAH, 200 µM PAH, 300 µM or 0.02–1022 µM probenecid, acamprosate, Lab. 1", "result": "did not inhibit"}, {"measurement": "saturability of dose-dependent substrate uptake in mock cells", "setting": "HEK293-Flp-In mock cells; same substrate concentrations as in transfected cells, acamprosate 0.33–3300 µM", "result": "not saturable"}, {"measurement": "Cmax", "setting": "[1]; acamprosate, IV bolus, 333 mg", "result": "153 ± 38", "unit": "µM"}, {"measurement": "Cmax", "setting": "[1]; acamprosate, IV bolus, 666 mg", "result": "214 ± 10", "unit": "µM"}, {"measurement": "Cmax", "setting": "[1]; acamprosate, IV bolus, 710 mg", "result": "230 ± 64", "unit": "µM"}, {"measurement": "Cmax", "setting": "[1]; acamprosate, IV bolus, 1420 mg", "result": "486 ± 106", "unit": "µM"}, {"measurement": "Cmax", "setting": "[1]; acamprosate, IV bolus, 2130 mg", "result": "768 ± 149", "unit": "µM"}, {"measurement": "fu, fraction unbound in plasma", "setting": "[1]; acamprosate, all doses and routes of Table A1", "result": "1 [5]"}, {"measurement": "Cmax", "setting": "[1]; acamprosate, oral solution, 333 mg", "result": "1.8 ± 0.8", "unit": "µM"}, {"measurement": "Cmax", "setting": "[1]; acamprosate, oral solution, 666 mg", "result": "4.3 ± 1.4", "unit": "µM"}, {"measurement": "Cmax", "setting": "[1]; acamprosate, oral solution, 1332 mg", "result": "5 ± 1.7", "unit": "µM"}, {"measurement": "Cmax", "setting": "[1]; acamprosate, oral solution, 2664 mg", "result": "8.6 ± 4.1", "unit": "µM"}, {"measurement": "Cmax", "setting": "[1]; acamprosate, oral tablet, 666 mg", "result": "1.4 ± 1.1", "unit": "µM"}, {"measurement": "Cmax", "setting": "[1]; acamprosate, oral tablet, 1332 mg", "result": "1.5 ± 0.1", "unit": "µM"}, {"measurement": "plasma levels", "setting": "[1]; administered orally, humans", "result": "1 to 9", "unit": "µM"}, {"measurement": "metabolism in humans", "setting": "[1]", "result": "not metabolized"}, {"measurement": "share of the eliminated dose accounted for by renal clearance (CLR)", "setting": "[1]", "result": "> 95", "unit": "%"}, {"measurement": "renal clearance (CLR) of unbound acamprosate", "setting": "[1]; healthy adults", "result": "13.4 to 23.4", "unit": "L/h"}, {"measurement": "fu (plasma protein binding)", "setting": "[1]; humans", "result": 1}, {"measurement": "initial unbound plasma concentration (C0,u)", "setting": "[1]; intravenous (bolus), doses of 333–2130 mg", "result": "154 to 768", "unit": "µM"}, {"measurement": "unbound steady-state plasma concentration (Cmax,u)", "setting": "[1]; oral, doses of 333–2130 mg", "result": "2 to 5", "unit": "µM"}, {"measurement": "inhibition of substrate transport via OATP2B1", "setting": "OATP2B1", "result": "did not inhibit"}, {"measurement": "inhibition of substrate transport via B^0,+AT/rBAT", "setting": "B^0,+AT/rBAT", "result": "did not inhibit"}, {"measurement": "inhibition of substrate transport via TAUT", "setting": "TAUT", "result": "did not inhibit"}, {"measurement": "ionized at the assay pH", "setting": "[2]", "result": "> 99", "unit": "%"}]}]}
